The term IC50 denotes the concentration that gives 50% inhibition.

This test concerns the target T1, human PRMT1 (Homo sapiens, UniProt Q99873).
T1 construct: GST-tagged PRMT1; made in house; host or cells: High Five insect cells (baculovirus, pFastBacI)
The test is described as follows: PRMT1 biochemical assay (3H-SAM Flashplate, peptide substrate). Conditions: read-out: PRMT1_ IC50. An excerpt:
S-adenosylmethionine (SAM), S-adenosylhomocysteine (SAH), bicine, Tween20, dimethylsulfoxide (DMSO), bovine skin gelatin (BSG), and Tris(2-carboxyethyl)phosphine hydrochloride solution (TCEP) were purchased from Sigma-Aldrich at the highest level of purity possible. ^3H-SAM was purchase from American Radiolabeled Chemicals with a specific activity of 80 Ci/mmol. 384-well streptavidin Flashplates were purchased from PerkinElmer.
Peptide representative of human histone H4 residues 36-50 was synthesized with an N-terminal linker-affinity tag motif and a C-terminal amide cap by 21st Century Biochemicals. The peptide was purified by high-performance liquid chromatography (HPLC) to greater than 95% purity and confirmed by liquid chromatography mass spectrometry (LC-MS). The sequence was Biot-Ahx-[…]-amide (SEQ ID NO.: 1).
Full-length human PRMT1 isoform 1 (NM_001536.5) transcript clone was amplified from an HEK 293 cDNA library, incorporating flanking 5′ sequence encoding a FLAG tag ([…]) (SEQ ID NO.: 2) fused directly to Met 1 of PRMT1. The amplified gene was subcloned into pFastBacI (Life Technologies) modified to encode an N-terminal GST tag and a TEV cleavage sequence ([…] […] […] […] QGGNS)(SEQ ID NO.: 3) fused to Asp of the Flag tag of PRMT1.
Recombinant baculovirus were generated according to Bac-to-Bac kit instructions (Life Technologies). Protein over-expression was accomplished by infecting exponentially growing High Five insect cell culture at 1.5×10^6 cell/ml with 1:100 ratio of virus. Infections were carried out at 27° C. for 48 hours, harvested by centrifugation, and stored at −80° C. for purification.
GST-tagged PRMT1 was eluted with 50 mM Tris, 2 mM glutathione, pH 7.8, dialysed in buffer A and concentrated to 1 mg/mL. The purity of recovered protein was 73%. Reference: Wasilko, D. J. and S. E. Lee: “TIPS: titerless infected-cells preservation and scale-up” Bioprocess J., 5 (2006), pp. 29-32.
General Procedure for PRMT1 Enzyme Assays on Peptide Substrates.
The assays were all performed in a buffer consisting of 20 mM Bicine (pH=7.6), 1 mM TCEP, 0.005% BSG, and 0.002% Tween 20, prepared on the day of use. Compounds in 100% DMSO (1 ul) were spotted into a polypropylene 384-well V-bottom plates (Greiner) using a Platemate Plus outfitted with a 384-channel head (Thermo Scientific). DMSO (1 ul) was added to Columns 11, 12, 23, 24, rows A-H for the maximum signal control and 1 ul of SAH, a known product and inhibitor of PRMT1, was added to columns 11, 12, 23, 24, rows I-P for the minimum signal control. A cocktail (40 ul) containing the PRMT1 enzyme was added by Multidrop Combi (Thermo-Fisher). The compounds were allowed to incubate with PRMT1 for 30 min at room temperature, then a cocktail (10 ul) containing SAM and peptide was added to initiate the reaction (final volume=51 ul). The final concentrations of the components were as follows: PRMT1 was 0.5 nM, ^3H-SAM was 200 nM, non-radiolabeled SAM was 1.5 uM, peptide was 20 nM, SAH in the minimum signal control wells was 1 mM, and the DMSO concentration was 2%. The assays were stopped by the addition of non-radiolabeled SAM (10 ul) to a final concentration of 300 uM, which dilutes the ^3H-SAM to a level where its incorporation into the peptide substrate is no longer detectable. 50 ul of the reaction in the 384-well polypropylene plate was then transferred to a 384-well Flashplate and the biotinylated peptides were allowed to bind to the streptavidin surface for at least 1 hour before being washed once with 0.1% Tween20 in a Biotek ELx405 plate washer. The plates were then read in a PerkinElmer TopCount plate reader to measure the quantity of ^3H-labeled peptide bound to the Flashplate surface, measured as disintegrations per minute (dpm) or alternatively, referred to as counts per minute (cpm).
Where dpm=disintegrations per minute, cmpd=signal in assay well, and min and max are the respective minimum and maximum signal controls. […]

T1 sequence (Q99873 with tags, fused parts or gaps): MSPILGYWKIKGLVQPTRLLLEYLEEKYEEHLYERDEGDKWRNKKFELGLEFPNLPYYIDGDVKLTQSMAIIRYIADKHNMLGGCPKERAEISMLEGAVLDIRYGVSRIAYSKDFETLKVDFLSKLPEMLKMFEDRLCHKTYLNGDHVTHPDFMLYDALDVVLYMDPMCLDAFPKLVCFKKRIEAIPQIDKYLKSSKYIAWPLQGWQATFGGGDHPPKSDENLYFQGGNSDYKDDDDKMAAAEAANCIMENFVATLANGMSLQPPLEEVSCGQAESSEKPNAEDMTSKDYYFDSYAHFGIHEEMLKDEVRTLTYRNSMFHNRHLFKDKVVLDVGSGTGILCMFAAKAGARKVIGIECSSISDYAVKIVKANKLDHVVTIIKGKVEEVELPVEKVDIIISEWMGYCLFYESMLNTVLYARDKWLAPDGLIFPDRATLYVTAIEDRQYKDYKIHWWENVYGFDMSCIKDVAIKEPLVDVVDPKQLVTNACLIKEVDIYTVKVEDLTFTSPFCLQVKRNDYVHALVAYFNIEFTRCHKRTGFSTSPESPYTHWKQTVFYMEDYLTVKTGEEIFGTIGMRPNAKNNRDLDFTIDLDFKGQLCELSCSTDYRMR

`COc1cccc(-n2cnc3ccc(-c4ccc(CNCCN)cc4)cc32)c1` [Compound 110]: the IC50 was 583 nM.
As for `CNCCN(C)Cc1cccc(-c2nc(NCc3cn4ccsc4n3)c3cnn(C4CC4)c3n2)c1` [Compound 6], the figure is 36.9 nM; as for `CNCCN(C)Cc1cccc(-c2nc(NC3CC3)c3cnn(C4CC4)c3n2)c1` [Compound 114], 617 nM.
The same measure for `CNCCN(C)Cc1cccc(-c2cc(C(=O)NCCC(=O)NCC3CCOCC3)c3cnn(C(C)C)c3n2)c1` [Compound 64]: 271 nM.
As for `CNCCN(C)Cc1cccc(-c2cc(C(=O)NCCCCC(=O)NCC3CCOCC3)c3cnn(C(C)C)c3n2)c1` [Compound 118], the figure is 668 nM.
As to `CC(C)n1ncc2c(C(=O)NCC3CCOCC3)cc(-c3cccc(CN(C)CCN)c3)nc21` [Compound 108], the IC50 was 568 nM.
Regarding `Cc1c(C(=O)NCc2ccccc2)cc(-c2ccc(CN(C)CCN)cc2)c2cn[nH]c12` [Compound 7], the IC50 was determined as 45.2 nM.
As for `CNCCN(C)Cc1cccc(-c2ccc3nc[nH]c3c2)c1` [Compound 75], the figure is 312 nM; as for `CNCCN(C)Cc1cccc(-c2cc(N3CCC(C(F)(F)F)CC3)c3cnn(C(C)C)c3n2)c1` [Compound 50], 223 nM; as for `CNCCN(C)Cc1cccc(-c2cc(C(=O)NCc3cc(C)nn3C)c3cnn(C(C)C)c3n2)c1` [Compound 120], 718 nM.
As to `CC(C)n1ncc2c(NS(=O)(=O)N(C)C)cc(-c3cccc(CN(C)CCN)c3)nc21` [Compound 107], the IC50 turned out to be 562 nM.
The same measure for `CNCCN(C)Cc1cccc(-c2nc(NCc3ccncc3)c3cnn(C4CC4)c3n2)c1` [Compound 69]: 282 nM.
The same measure for `CNCCN(C)Cc1cccc(-c2cc(NC(=O)NC(C)C)c3cnn(C(C)C)c3n2)c1` [Compound 85]: 391 nM; for `CNCCN(C)Cc1cccc(-c2cc(C#N)c3cnn(C(C)C)c3n2)c1` [Compound 74]: 309 nM.
On to `CNCCN(C)Cc1cccc(-c2cc(NC3CCOCC3)c3cnn(C(C)C)c3n2)c1` [Compound 76], for which the IC50 was 317 nM.
As for `CNCCN(C)Cc1cccc(-c2cc(C(=O)NCCCCCC(=O)NCc3ccn(C)n3)c3cnn(C(C)C)c3n2)c1` [Compound 117], the figure is 642 nM; as for `Cc1ccc(Cn2cnc3ccc(-c4ccc(CNCCN)cc4)cc32)cc1` [Compound 97], 452 nM.
The same measure for `CNCCN(C)Cc1cccc(-c2cc(OC3CCOC3)c3cnn(C(C)C)c3n2)c1` (centres unmarked) [Compound 102]: 492 nM; for `CNCCN(C)Cc1cccc(-c2cc(N3CCC(C#N)CC3)c3cnn(C(C)C)c3n2)c1` [Compound 93]: 433 nM.
For `CC(C)n1ncc2c(N3CCOCC3)cc(-c3cccc(CN(C)CCN)c3)nc21` [Compound 61, N1-(3-(1-isopropyl-4-morpholino-1H-pyrazolo[3,4-b]pyridin-6-yl)benzyl)-N1-methylethane-1,2-diamine], the IC50 came to 249 nM.
As to `CC(C)n1ncc2c(NC(=O)N(C)C)cc(-c3cccc(CN(C)CCN)c3)nc21` [Compound 116], the IC50 came to 640 nM.
The same measure for `CNCCN(C)Cc1cccc(-c2cc(N3CCCC(C#N)C3)c3cnn(C(C)C)c3n2)c1` (centres unmarked) [Compound 55]: 236 nM; for `CCC(O)c1cc(-c2cccc(CN(C)CCNC)c2)nc2c1cnn2C(C)C` (centres unmarked) [Compound 48]: 212 nM.
For `CNCCN(C)Cc1cccc(-c2cc(NC3COC3)c3cnn(C(C)C)c3n2)c1` [Compound 58], the IC50 amounted to 239 nM.
Regarding `COC(=O)Nc1cc(-c2cccc(CN(C)CCN)c2)nc2c1cnn2C(C)C` [Compound 71], the IC50 was 302 nM.
For `CC(C)n1cc2c(Cl)cc(-c3cccc(CN(C)CCN)c3)nc2n1` [Compound 59], the IC50 was found to be 244 nM.
The same measure for `COc1ccccc1Cn1cnc2ccc(-c3ccc(CNCCN)cc3)cc21` [Compound 80]: 345 nM; for `CNCCN(C)Cc1cccc(-c2cc(OC)c3cnn(C(C)C)c3n2)c1` [Compound 124]: 770 nM; for `COc1cccc(CCn2cnc3ccc(-c4ccc(CNCCN)cc4)cc32)c1` [Compound 94]: 446 nM.

These data come from patent publication US20170280720A1, “ARGININE […] INHIBITORS AND USES THEREOF” (EPIZYME, INC., priority 2014, published 2017).
